In US10800782B2, “Inhibitors of cellular metabolic processes” (Agios Pharmaceuticals, Inc., priority 2016, dated 2020):
pIC50: −log10 of the molar value.

target: T1, MAT2A (Homo sapiens, UniProt P31153); experiment: MAT2A biochemical assay (colorimetric inorganic phosphate detection, PiColorLock); settings: recombinant His6-tagged MAT2A 1 μg/ml; 60 minutes preincubation at 25° C.; L-Met 80 μM, ATP 100 μM; 60 minutes reaction; read at 623 nm; read-out: MAT2A Inhibition Score
T1 construct: His6; made in house; host or cells: SF9 insect cells
T1 sequence (P31153 whole entry): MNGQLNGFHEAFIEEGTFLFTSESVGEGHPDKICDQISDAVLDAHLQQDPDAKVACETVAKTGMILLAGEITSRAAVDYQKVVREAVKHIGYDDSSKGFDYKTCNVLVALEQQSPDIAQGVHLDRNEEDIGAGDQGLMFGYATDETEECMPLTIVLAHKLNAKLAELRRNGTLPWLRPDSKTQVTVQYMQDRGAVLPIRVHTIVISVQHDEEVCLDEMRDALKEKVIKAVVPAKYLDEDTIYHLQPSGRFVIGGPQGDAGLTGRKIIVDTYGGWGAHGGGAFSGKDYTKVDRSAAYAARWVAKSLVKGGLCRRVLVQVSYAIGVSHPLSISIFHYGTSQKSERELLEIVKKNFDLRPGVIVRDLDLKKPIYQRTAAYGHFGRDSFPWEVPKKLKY
Summary of the method: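 His6-tagged human MAT2A (SF9-expressed, 1 μg/ml) converting L-Met and ATP to SAM in Tris pH 8.0, 50 mM KCl, 15 mM MgCl2, 300 uM EDTA, 0.005% BSA; 60 min at room temperature. Released phosphate detected colorimetrically with malachite green phosphomolybdate. Ten-point, three-fold compound dilution series.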

Compound	pIC50
Cc1[nH]c2c(N3CCCCC3)c(-c3ccccc3)nn2c(=O)c1-c1ccc(C(N)=O)cc1 [Compound 305, 4-(5-methyl-7-oxo-2-phenyl-3-(piperidin-1-yl)-4,7-dihydropyrazolo[1,5-a]pyrimidin-6-yl)benzamide]	6.00 to 7.00
NCc1[nH]c2c(-c3ccccc3)c(-c3ccccc3)nn2c(=O)c1-c1ccc2c(c1)OCCO2 [Compound 223, 5-(aminomethyl)-6-(2,3-dihydrobenzo[b][1,4]dioxin-6-yl)-2,3-diphenylpyrazolo[1,5-a]pyrimidin-7(4H)-one]	> 7.00
Cc1[nH]c2c(-c3ccccc3)c(-c3ccccc3)nn2c(=O)c1-c1ccc2nccnc2c1 [Compound 331, 5-methyl-2,3-diphenyl-6-(quinoxalin-6-yl)pyrazolo[1,5-a]pyrimidin-7(4H)-one]	6.00 to 7.00
Cc1[nH]c2c(N3CCCCC3)c(-c3ccccc3)nn2c(=O)c1-c1ccc2ncccc2c1 [Compound 206, 5-methyl-2-phenyl-3-(piperidin-1-yl)-6-(quinolin-6-yl)pyrazolo[1,5-a]pyrimidin-7(4H)-one]	> 7.00
COc1ccc(-c2c(Cn3cnnn3)[nH]c3c(-c4ccccc4)c(-c4ccccc4)nn3c2=O)cc1 [Compound 338, 5-((1H-tetrazol-1-yl)methyl)-6-(4-methoxyphenyl)-2,3-diphenylpyrazolo[1,5-a]pyrimidin-7(4H)-one]	6.00 to 7.00
CCOC(=O)c1nnc(Nc2[nH]c3c(-c4ccccc4)c(-c4ccccc4)nn3c(=O)c2-c2ccc3ncccc3c2)o1 [Compound 171, ethyl 5-((7-oxo-2,3-diphenyl-6-(quinolin-6-yl)-4,7-dihydropyrazolo[1,5-a]pyrimidin-5-yl)amino)-1,3,4-oxadiazole-2-carboxylate]	> 7.00

The next lines start with the values.

pIC50	Compound
> 7.00	Cc1[nH]c2c(C3=CCCCC3)c(-c3ccccc3)nn2c(=O)c1-c1ccc(OCOP(=O)(O)O)cc1 [Compound 296, (4-(3-cyclohexenyl-5-methyl-7-oxo-2-phenyl-4,7-dihydropyrazolo[1,5-a]pyrimidin-6-yl)phenoxy)methyl dihydrogen phosphate]
> 7.00	Cc1[nH]c2c(-c3ccccc3)c(-c3ccccc3)nn2c(=O)c1-c1ccc(O)c(O)c1 [Compound 260, 6-(3,4-dihydroxyphenyl)-5-methyl-2,3-diphenylpyrazolo[1,5-a]pyrimidin-7(4H)-one]
5.00 to 6.00	O=C(NCc1cc[nH]n1)c1[nH]c2c(-c3ccccc3)c(-c3ccccc3)nn2c(=O)c1-c1ccc2ncccc2c1 [Compound 328, N-((1H-pyrazol-3-yl)methyl)-7-oxo-2,3-diphenyl-6-(quinolin-6-yl)-4,7-dihydropyrazolo[1,5-a]pyrimidine-5-carboxamide]
> 7.00	CCNC(=O)c1nnc(Nc2[nH]c3c(-c4ccccc4)c(-c4ccccc4)nn3c(=O)c2-c2ccc3ncccc3c2)o1 [Compound 199, N-ethyl-5-((7-oxo-2,3-diphenyl-6-(quinolin-6-yl)-4,7-dihydropyrazolo[1,5-a]pyrimidin-5-yl)amino)-1,3,4-oxadiazole-2-carboxamide]
5.00 to 6.00	COc1ccc(-c2nn3c(=O)c(-c4ccc5ncccc5c4)c(C)[nH]c3c2-c2ccccc2)cn1 [Compound 349, 2-(6-methoxypyridin-3-yl)-5-methyl-3-phenyl-6-(quinolin-6-yl)pyrazolo[1,5-a]pyrimidin-7(4H)-one]
> 7.00	Cc1[nH]c2c(-c3ccccc3)c(-c3ccccc3)nn2c(=O)c1-c1ccc2ncncc2c1 [Compound 245, 5-methyl-2,3-diphenyl-6-(quinazolin-6-yl)pyrazolo[1,5-a]pyrimidin-7(4H)-one]
> 7.00	O=c1c(-c2ccc(O)cc2)c(Nc2cc[nH]n2)[nH]c2c(-c3ccccc3)c(-c3ccccc3)nn12 [Compound 193, 5-((1H-pyrazol-3-yl)amino)-6-(4-hydroxyphenyl)-2,3-diphenylpyrazolo[1,5-a]pyrimidin-7(4H)-one]
